Target: T1, human TRPM8 (Homo sapiens, UniProt Q7Z2W7)
T1 construct: expressed in transfected cells; host or cells: Chinese hamster ovary (CHO) cells, T-REx tetracycline-inducible expression system (Invitrogen), co-transfected with pcDNA3.1 jellyfish aequorin
Assay: Luminescence readout assay for measuring intracellular calcium (aequorin), hTRPM8 antagonism
Format: cell-based
Details: CHO cell line expressing human TRPM8 and aequorin; activation by icilin, L-menthol or cold buffer (table does not say which)
Experimental: Luminescence Readout Assay for Measuring Intracellular Calcium.
A stable Chinese hamster ovary cell line expressing human TRPM8 was generated using tetracycline inducible T-REx™ expression system from Invitrogen, Inc. (Carlsbad, Calif.). […] Twenty four hours before the assay, cells were seeded in 96-well plates and TRPM8 expression was induced with 0.5 μg/mL tetracycline. […] Potential antagonists were added 2.5 min prior to the addition of agonist, […], 100 µM L-menthol, or 1 min prior to the addition of cold buffer (<10° C.). The luminescence was measured by a CCD camera based FLASH-luminometer built by Amgen, Inc. A cooling device attached to FLASH luminometer was used for cold activation.

T1 sequence (Q7Z2W7 whole entry): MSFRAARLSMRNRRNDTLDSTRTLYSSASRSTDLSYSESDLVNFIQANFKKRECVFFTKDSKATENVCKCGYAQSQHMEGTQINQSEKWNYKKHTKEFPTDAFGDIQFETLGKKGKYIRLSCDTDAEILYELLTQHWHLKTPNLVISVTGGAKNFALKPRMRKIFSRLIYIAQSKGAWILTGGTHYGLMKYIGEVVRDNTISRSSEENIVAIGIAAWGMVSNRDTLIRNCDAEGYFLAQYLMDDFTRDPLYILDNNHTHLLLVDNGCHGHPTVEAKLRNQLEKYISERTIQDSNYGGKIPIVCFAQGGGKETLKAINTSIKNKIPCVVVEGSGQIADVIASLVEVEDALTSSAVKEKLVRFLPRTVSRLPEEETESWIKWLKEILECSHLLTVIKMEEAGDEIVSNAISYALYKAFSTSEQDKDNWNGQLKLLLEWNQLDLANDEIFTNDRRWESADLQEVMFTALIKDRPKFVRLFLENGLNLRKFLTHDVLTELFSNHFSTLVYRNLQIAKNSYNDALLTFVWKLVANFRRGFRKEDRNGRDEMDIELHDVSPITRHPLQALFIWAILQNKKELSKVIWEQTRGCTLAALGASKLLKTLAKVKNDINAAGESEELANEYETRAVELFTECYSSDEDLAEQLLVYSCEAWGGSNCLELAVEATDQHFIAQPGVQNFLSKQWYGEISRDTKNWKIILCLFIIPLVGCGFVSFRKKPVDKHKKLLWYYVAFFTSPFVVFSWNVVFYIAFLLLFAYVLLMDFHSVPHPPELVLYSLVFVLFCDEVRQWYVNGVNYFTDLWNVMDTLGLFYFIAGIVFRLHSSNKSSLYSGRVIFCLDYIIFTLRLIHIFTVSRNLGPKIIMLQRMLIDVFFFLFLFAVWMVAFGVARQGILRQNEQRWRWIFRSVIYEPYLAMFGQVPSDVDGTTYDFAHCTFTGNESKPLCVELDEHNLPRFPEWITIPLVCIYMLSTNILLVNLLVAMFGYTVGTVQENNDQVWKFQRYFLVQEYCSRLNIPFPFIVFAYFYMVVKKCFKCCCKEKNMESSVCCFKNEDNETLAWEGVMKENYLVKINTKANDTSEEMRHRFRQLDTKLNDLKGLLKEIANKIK

IC50 [nM] | SMILES
425 | COC(=O)c1cccc(NC(=O)N[C@@H](c2ccc(C(F)(F)F)cc2)c2ncccc2C(F)(F)F)c1C [Example 182, (S)-methyl 2-methyl-3-(3-((4-(trifluoro-methyl)phenyl) (3-(trifluoro-methyl)pyridin-2-yl)methyl)ureido)benzoate (2,2,2-trifluoro-acetate)]
2280 | O=C(Nc1ccc(F)cc1F)N[C@@H](c1ccc(C(F)(F)F)cc1)c1ncccc1C(F)(F)F [Example 48, (S)-1-(2,4-difluoro-phenyl)-3-((4-(trifluoro-methyl)-phenyl)(3-(trifluoro-methyl)-pyridin-2-yl)-methyl)urea]
328 | O=C(N[C@@H](c1ccc(C(F)(F)F)c(F)c1)c1ncccc1C(F)(F)F)N1CCOCC1 [Example 167, (S)—N-((3-Fluoro-4-(trifluoromethyl)phenyl)(3-(trifluoromethyl)pyridin-2-yl)methyl)morpholine-4-carboxamide 2,2,2-trifluoroacetate]
1500 | CCOC(=O)CNC(=O)N[C@@H](c1ccc(C(F)(F)F)cc1)c1ncccc1C(F)(F)F [Example 38, (S)-ethyl 2-(3-((4-(trifluoro-methyl)-phenyl)(3-(trifluoro-methyl)-pyridin-2-yl)-methyl)-ureido)acetate (2,2,2-trifluoro-acetate)]
163 | O=C(NCc1cccc(F)c1)N[C@@H](c1ccc(C(F)(F)F)cc1)c1ncccc1C(F)(F)F [Example 72, (S)-1-(3-fluorobenzyl)-3-((4-(trifluoro-methyl)-phenyl)(3-(trifluoro-methyl)-pyridin-2-yl)-methyl)urea (2,2,2-trifluoro-acetate)]
308 | COc1ccc2cc([C@H](NC(=O)Nc3cccnc3)c3ncccc3C(F)(F)F)cnc2c1 [Example 18, (S)-1-((7-methoxy-quinolin-3-yl)-(3-(trifluoro-methyl)-pyridin-2-yl)-methyl)-3-(pyridin-3-yl)-urea]
674 | O=C(Nc1cccnc1)NC(c1cc(F)cc(Cl)c1)c1ncccc1F (stereo not shown) [Example 24, 1-((3-chloro-5-fluoro-phenyl)(3-fluoropyridin-2-yl)methyl)-3-(pyridin-3-yl)urea (2,2,2-trifluoro-acetate)]
881 | CCOC(=O)CCCNC(=O)N[C@@H](c1ccc(C(F)(F)F)cc1)c1ncccc1C(F)(F)F [Example 68, (S)-ethyl 4-(3-((4-(trifluoro-methyl)-phenyl)(3-(trifluoro-methyl)-pyridin-2-yl)-methyl)-ureido)-butanoate (2,2,2-trifluoro-acetate)]
496 | CCOC(=O)NC(=O)N[C@@H](c1ccc(C(F)(F)F)cc1)c1ncccc1C(F)(F)F [Example 81]
375 | O=C(Nc1cccnc1)N[C@@H](c1ccc(C(F)(F)F)cc1)c1cnccc1C(F)(F)F [Example 119, (S)-1-(pyridin-3-yl)-3-((4-(trifluoro-methyl)-phenyl)(4-(trifluoro-methyl)-pyridin-3-yl)-methyl)urea bis(2,2,2-trifluoro-acetate)]
172 | O=C(Nc1cccnc1)N[C@@H](c1cnc2cccc(Cl)c2c1)c1ncccc1C(F)(F)F [Example 10, (S)-1-((5-chloroquinolin-3-yl)(3-(trifluoro-methyl)-pyridin-2-yl)-methyl)-3-(pyridin-3-yl)-urea]
110 | O=C(NCc1ccccc1)N[C@@H](c1ccc(C(F)(F)F)cc1)c1ncccc1C(F)(F)F [Example 109, (S)-1-benzyl-3-((4-(trifluoro-methyl)-phenyl)(3-(trifluoro-methyl)-pyridin-2-yl)-methyl)urea (2,2,2-trifluoro-acetate)]
147 | CCOC(=O)N[C@@H](c1ccc(C(F)(F)F)cc1)c1ncccc1C(F)(F)F [Example 170, (S)-Ethyl((4-(trifluoromethyl)phenyl)(3-(trifluoromethyl)-pyridin-2-yl)methyl)carbamate]
108 | CCc1cccc(CC)c1NC(=O)N[C@@H](c1ccc(C(F)(F)F)cc1)c1ncccc1C(F)(F)F [Example 88, (S)-1-(2,6-diethylphenyl)-3-((4-(trifluoro-methyl)-phenyl)(3-(trifluoro-methyl)-pyridin-2-yl)-methyl)urea (2,2,2-trifluoro-acetate)]
558 | O=C(Nc1cc(F)cc(F)c1)N[C@@H](c1ccc(C(F)(F)F)cc1)c1ncccc1C(F)(F)F [Example 49, (S)-1-(3,5-difluoro-phenyl)-3-((4-(trifluoro-methyl)-phenyl)(3-(trifluoro-methyl)-pyridin-2-yul)-methyl)urea]
133 | CC(C)(C)NC(=O)N[C@@H](c1ccc(C(F)(F)F)cc1)c1ccccc1Br [Example 116, (S)-1-((2-bromophenyl) (4-(trifluoro-methyl)-phenyl)-methyl)-3-tert-butylurea]

IC50 [nM] | SMILES
201 | O=C(Nc1cccnc1)NC(c1ccc(F)c(C(F)(F)F)c1)c1ncccc1F (stereo not shown) [Example 22, 1-((4-fluoro-3-(trifluoro-methyl)-phenyl)(3-fluoropyridin-2-yl)methyl)-3-(pyridin-3-yl)urea (2,2,2-trifluoro-acetate)]
1230 | COc1cccc([C@H](NC(=O)Nc2cccnc2)c2ncccc2C(F)(F)F)c1 [Example 4, (S)-1-((3-methoxy-phenyl)(3-(trifluoro-methyl)-pyridin-2-yl)-methyl)-3-(pyridin-3-yl)-urea]
657 | O=C(NCC1CCCCC1)N[C@@H](c1ccc(C(F)(F)F)cc1)c1ncccc1C(F)(F)F [Example 127, (S)-1-(cyclohexyl-methyl)-3-((4-(trifluoro-methyl)-phenyl)(3-(trifluoro-methyl)-pyridin-2-yl)-methyl)urea (2,2,2-trifluoro-acetate)]
915 | O=C(Nc1ccc(F)cc1)NC(c1ccccc1)c1ccc(C(F)(F)F)cc1 (stereo not shown) [Example 171, 1-(4-Fluorophenyl)-3-(phenyl(4-(trifluoromethyl)phenyl)-methyl)urea]
86 | O=C1Cc2ccc(NC(=O)N[C@@H](c3ccc(C(F)(F)F)cc3)c3ncccc3F)cc2N1 [Example 166, (S)-1-((3-fluoropyridin-2-yl)(4-(trifluoro-methyl)-phenyl)-methyl)-3-(2-oxoindolin-6-yl)urea]
1110 | Cc1cc(C)c(NC(=O)N[C@@H](c2ccc(C(F)(F)F)cc2)c2ncccc2C(F)(F)F)c(C)c1 [Example 186, (S)-1-mesityl-3-((4-(trifluoro-methyl)phenyl) (3-(trifluoro-methyl)pyridin-2-yl)methyl)urea (2,2,2-trifluoro-acetate)]
332 | O=C(NCc1ccccc1Cl)N[C@@H](c1ccc(C(F)(F)F)cc1)c1ncccc1C(F)(F)F [Example 73, (S)-1-(2-chlorobenzyl)-3-((4-(trifluoro-methyl)-phenyl)(3-(trifluoro-methyl)-pyridin-2-yl)-methyl)urea (2,2,2-trifluoro-acetate)]
122 | CC(C)(C)NC(=O)N[C@@H](c1ccc(C(F)(F)F)cc1)c1ncccc1Br [Example 41, (S)-1-((3-bromopyridin-2-yl)(4-(trifluoro-methyl)-phenyl)-methyl)-3-(tert-butyl)-urea]
112 | COc1ccc(NC(=O)N[C@@H](c2ccc(C(F)(F)F)cc2)c2ncccc2C(F)(F)F)cc1OC [Example 74, (S)-1-(3,4-dimethoxy-phenyl)-3-((4-(trifluoro-methyl)-phenyl)(3-(trifluoro-methyl)-pyridin-2-yl)-methyl)urea (2,2,2-trifluoro-acetate)]
1900 | C[C@H](NC(=O)N[C@@H](c1ccc(C(F)(F)F)cc1)c1ncccc1C(F)(F)F)c1cccc2ccccc12 [Example 33, 1-((S)-1-(naphthalen-1-yl)ethyl)-3-((S)-(4-(trifluoro-methyl)-phenyl)(3-(trifluoro-methyl)-pyridin-2-yl)-methyl)urea (2,2,2-trifluoro-acetate)]
287 | COc1cc(NC(=O)N[C@@H](c2ccc(C(F)(F)F)cc2)c2ncccc2C(F)(F)F)cc(OC)c1OC [Example 112, (S)-1-((4-(trifluoro-methyl)-phenyl)(3-(trifluoro-methyl)-pyridin-2-yl)-methyl)-3-(3,4,5-trimethoxy-phenyl)urea (2,2,2-trifluoro-acetate)]
360 | COc1cc([N+](=O)[O-])ccc1NC(=O)N[C@@H](c1ccc(C(F)(F)F)cc1)c1ncccc1C(F)(F)F [Example 141, (S)-1-(2-methoxy-4-nitrophenyl)-3-((4-(trifluoro-methyl)-phenyl)(3-(trifluoro-methyl)-pyridin-2-yl)-methyl)urea (2,2,2-trifluoro-acetate)]
712 | CC[C@H](C)C(NC(=O)N[C@@H](c1ccc(C(F)(F)F)cc1)c1ncccc1C(F)(F)F)C(=O)OC (stereo partly drawn) [Example 99, (3S)-methyl 3-methyl-2-(3-((S)-(4-(trifluoro-methyl)-phenyl)(3-(trifluoro-methyl)-pyridin-2-yl)-methyl)-ureido)-pentanoate (2,2,2-trifluoro-acetate)]
182 | O=C(Nc1ccnc2ccccc12)N[C@@H](c1ccc(C(F)(F)F)cc1)c1ncccc1C(F)(F)F [Example 60, (S)-1-(quinolin-4-yl)-3-((4-(trifluoro-methyl)-phenyl)(3-(trifluoro-methyl)-pyridin-2-yl)-methyl)urea]
633 | CC(NC(=O)N[C@@H](c1ccc(C(F)(F)F)cc1)c1ncccc1C(F)(F)F)c1ccc(Br)cc1 (stereo partly drawn) [Example 101, 1-(1-(4-bromophenyl)-ethyl)-3-((S)-(4-(trifluoro-methyl)-phenyl)(3-(trifluoro-methyl)-pyridin-2-yl)-methyl)urea (2,2,2-trifluoro-acetate)]

— patent US8778941B2, “TRPM8 antagonists and their use in treatments” (AMGEN Inc., priority 2011, dated 2014)
